Data reported in ChEMBL document CHEMBL1155096, “A regiospecific synthesis of a series of 1-sulfonyl azepinoindoles as potent 5-HT6 ligands” (Bioorg Med Chem Lett, 2008).
The source made the active and inactive calls. No cut-off for these calls is given here.

Key:
[1] = target: T1, 5-hydroxytryptamine receptor 6 (Homo sapiens, UniProt P50406); assay: Antagonist activity at cloned human 5HT6 receptor expressed in HeLa cells assessed as production of cAMP; assay type: functional, cell-based
[2] = target: T1, 5-hydroxytryptamine receptor 6; assay: Displacement of [3H]-LSD from cloned human 5HT6 receptor expressed in HeLa cells; assay type: cell-based
[3] = target: T2, 5-hydroxytryptamine receptor 2C (Homo sapiens, UniProt P28335); assay: Inhibition of 5HT2C
T2 sequence (P28335 whole entry): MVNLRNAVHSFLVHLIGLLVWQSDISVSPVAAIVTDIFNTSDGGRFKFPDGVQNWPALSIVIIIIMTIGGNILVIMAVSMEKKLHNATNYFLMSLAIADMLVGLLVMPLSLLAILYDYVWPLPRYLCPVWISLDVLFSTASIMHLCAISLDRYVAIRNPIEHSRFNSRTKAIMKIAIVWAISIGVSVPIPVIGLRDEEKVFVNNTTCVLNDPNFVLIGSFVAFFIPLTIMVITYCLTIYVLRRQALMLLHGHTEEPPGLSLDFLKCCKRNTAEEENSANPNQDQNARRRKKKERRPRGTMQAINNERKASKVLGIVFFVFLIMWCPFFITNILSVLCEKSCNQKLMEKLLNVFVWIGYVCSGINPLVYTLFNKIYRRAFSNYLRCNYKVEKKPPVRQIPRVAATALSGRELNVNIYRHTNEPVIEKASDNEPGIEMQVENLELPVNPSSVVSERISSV

T1 sequence (P50406 whole entry): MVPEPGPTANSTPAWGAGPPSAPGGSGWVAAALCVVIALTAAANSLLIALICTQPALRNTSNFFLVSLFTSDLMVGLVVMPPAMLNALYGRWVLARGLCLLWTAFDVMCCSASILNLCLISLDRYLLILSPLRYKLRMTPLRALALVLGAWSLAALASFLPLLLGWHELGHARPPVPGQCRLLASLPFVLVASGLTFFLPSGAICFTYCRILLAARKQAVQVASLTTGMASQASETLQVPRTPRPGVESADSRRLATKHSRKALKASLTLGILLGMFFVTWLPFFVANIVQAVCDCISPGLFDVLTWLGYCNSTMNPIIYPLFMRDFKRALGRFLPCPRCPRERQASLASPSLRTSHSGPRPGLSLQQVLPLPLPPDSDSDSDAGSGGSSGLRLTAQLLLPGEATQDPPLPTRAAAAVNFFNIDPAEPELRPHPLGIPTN

SMILES	Activity [1]	Ki [2] [nM]	IC50 [1] [nM]	Ki [3] [nM]
O=S(=O)(c1ccc(C(F)(F)F)cc1)n1c2c(c3ccccc31)CCNCC2	Active	46	–	–
Cc1ccc(S(=O)(=O)n2c3c(c4ccccc42)CCNCC3)cc1	Active	29	–	–
CCCN1CCc2c(n(S(=O)(=O)c3cccc(OC)c3)c3ccccc23)CC1	Active	124	–	–
O=S(=O)(c1cccc(Cl)c1)n1c2c(c3ccccc31)CCNCC2	Active	41	–	–
O=S(=O)(c1ccc(F)cc1)n1c2c(c3ccccc31)CCNCC2	Active	23	–	–
COc1cccc(S(=O)(=O)n2c3c(c4ccccc42)CCN(C)CC3)c1	Active	19	–	–
COc1cccc(S(=O)(=O)n2c3c(c4ccccc42)CCN(C(C)C)CC3)c1	Active	85	–	–
CCN1CCc2c(n(S(=O)(=O)c3cccc(OC)c3)c3ccccc23)CC1	Active	50	–	–
O=S(=O)(c1ccc2c(Cl)cccc2c1)n1c2c(c3ccccc31)CCNCC2	Active	24	–	–
Cc1cccc(S(=O)(=O)n2c3c(c4ccccc42)CCNCC3)c1	Active	68	–	–
COc1cccc(S(=O)(=O)n2c3c(c4ccccc42)CCN(C2CCCC2)CC3)c1	Active	324	–	–

Next, values leading:

Activity [1]	Ki [2] [nM]	IC50 [1] [nM]	Ki [3] [nM]	SMILES
Active	19	–	–	O=S(=O)(c1ccccc1Cl)n1c2c(c3ccccc31)CCNCC2
Active	319	–	–	COc1cccc(S(=O)(=O)n2c3c(c4ccccc42)CCN(Cc2ccccc2)CC3)c1
Active	504	–	–	COc1cccc(S(=O)(=O)n2c3c(c4ccccc42)CCN(CCc2ccccc2)CC3)c1
Active	89	–	–	O=S(=O)(c1cccc(C(F)(F)F)c1)n1c2c(c3ccccc31)CCNCC2
Active	12	–	–	COc1cccc(S(=O)(=O)n2c3c(c4ccccc42)CCNCC3)c1
Active	33	–	–	O=S(=O)(c1cccc(F)c1)n1c2c(c3ccccc31)CCNCC2
Active	33	–	–	COc1ccc(S(=O)(=O)n2c3c(c4ccccc42)CCNCC3)cc1
–	19	162	14	COc1ccccc1S(=O)(=O)n1c2c(c3ccccc31)CCNCC2
Active	193	–	–	O=S(=O)(c1ccccc1)n1c2c(c3ccccc31)CCNCC2
Active	12	–	–	CCN1CCc2c(n(S(=O)(=O)c3ccccc3)c3ccccc23)CC1
Active	253	–	–	COc1cccc(S(=O)(=O)n2c3c(c4ccccc42)CCN(C2CCCCC2)CC3)c1
Active	18	–	–	O=S(=O)(c1ccc(Cl)cc1)n1c2c(c3ccccc31)CCNCC2
